Data: ChEMBL document CHEMBL1138256 (Bioorg Med Chem Lett, 2007)
Calls of active or inactive are those of the source. The rule behind the calls is not given here.

Tests used:
[1] = (§1) Inhibition of Clostridium botulinum A recombinant light chain protease LC/A by FRET assay
Clostridium botulinum [2] = experiment: Inhibition of Clostridium botulinum A recombinant light chain protease LC/A by at 100 uM by FRET assay
Clostridium botulinum [3] = experiment: as §1

SMILES	IC50 [1]	Activity (Clostridium botulinum [2])	Activity (Clostridium botulinum [3])
O=C(NO)c1cc2ccc(Cl)cc2s1	45 µM		
CS(=O)(=O)c1cc(Cl)ccc1/C=C/C(=O)NO	17 µM		
COc1cc(Cl)ccc1/C=C/C(=O)NO	9 µM		
CSc1cc(Cl)ccc1/C=C/C(=O)NO	5.1 µM		
Cn1c(C(=O)NO)cc2ccc(Cl)cc21	38 µM		
O=C(/C=C/c1ccc(Cl)cc1Br)NO	0.7 µM		
O=C(/C=C/c1ccc(Cl)cc1Cl)NO [CINNAMIC ACID HYDROXAMATE]	0.9 µM		
O=C(NO)c1ccc2cc(Cl)ccc2c1	21 µM		
O=C(/C=C/c1ccc(Cl)cc1C(F)(F)F)NO	0.6 µM		
O=C(/C=C/c1ccc(Cl)cc1O)NO	13 µM		
N#Cc1cc(Cl)ccc1/C=C/C(=O)NO	12 µM		
O=C(NO)c1ccc2cc(Br)ccc2c1	71 µM		
Nc1cc(Cl)ccc1/C=C/C(=O)NO	25 µM		
O=C(/C=C/c1ccc(Cl)cc1[N+](=O)[O-])NO	2 µM		
O=C(/C=C/c1ccc(Cl)cc1F)NO	4.4 µM		
O=C(NO)C1=Cc2ccc(Cl)cc2C1	41 µM		
Cc1cc(Cl)ccc1/C=C/C(=O)NO	0.8 µM		
O=C(NO)c1cc2ccc(Cl)cc2[nH]1		inactive	inactive
